Conditions: Liquid, Transpiration method

CCCCOC(=O)CCC(C)=O [butyl levulinate]
Conditions | vapor or sublimation pressure [kPa]
298.2 K | 0.00393
303.2 K | 0.00611
308.1 K | 0.00895
313 K | 0.01421
318 K | 0.01999
323 K | 0.03006
327.9 K | 0.0443
332.8 K | 0.0632
337.8 K | 0.0939
342.8 K | 0.1289
347.8 K | 0.181

CCOC(=O)CCC(C)=O [ethyl levulinate]
Conditions | vapor or sublimation pressure [kPa]
293.5 K | 0.0169
298.4 K | 0.0253
303.3 K | 0.0375
308.3 K | 0.0542
313.3 K | 0.0795
318.3 K | 0.1129
323.3 K | 0.1613
328.2 K | 0.2312
333.1 K | 0.3106
338.1 K | 0.415
343.1 K | 0.553
348.8 K | 0.758

COC(=O)CCC(C)=O [methyl levulinate]
Conditions | vapor or sublimation pressure [kPa]
293.5 K | 0.0302
298.5 K | 0.0442
303.3 K | 0.0638
308.5 K | 0.0929
313.4 K | 0.1359
318.3 K | 0.1837
323.2 K | 0.2626
328.2 K | 0.3572
333.2 K | 0.501
338.2 K | 0.659
343.1 K | 0.878
348.2 K | 1.142
353.2 K | 1.473

Reference: the NIST ThermoML archive (doi:10.1016/j.tca.2017.12.006)
